Reference: patent US4927820A, “Fused heterocyclic derivatives of 1,2,3,4-tetrahydroacridine” (priority 1988, dated 1990)
pIC50: −log10 of the molar value.

Legend:
acetylcholinesterase = acetylcholinesterase (Homo sapiens, UniProt P22303); assay: Cholinesterase inhibition assay (photometric method of Ellman et al.); type: biochemical
[1] = system: scopolamine induced memory deficit in mice; assay: Dark Avoidance Assay (reversal of scopolamine induced memory deficit); type: in vivo; conditions: retest 24 hours later
Protocol: This utility can also be ascertained by determining the ability of these compounds to restore cholinergically deficient memory in the Dark Avoidance Assay. In this assay mice are tested for their ability to remember an unpleasant stimulus for a period of 24 hours. A mouse is placed in a chamber that contains a dark compartment; a strong incadescent light drives it to the dark compartment, where an electric shock is administered through metal plates on the floor. The animal is removed from the testing apparatus and tested again, 24 hours later, for the ability to remember the electric shock.
If scopolamine, an anticholinergic that is known to cause memory impairment, is administered before an animal's initial exposure to the test chamber, the animal re-enters the dark compartment shortly after being placed in the test chamber 24 hours later. This effect of scopolamine is blocked by an active test compound, resulting in a greater interval before re-entry into the dark compartment.
The results for an active compound are expressed as the percent of a group of animals in which the effect of scopolamine is blocked, as manifested by an increased interval between being placed in the test chamber and re-entering the dark compartment.

acetylcholinesterase, sequence (P22303 32-614): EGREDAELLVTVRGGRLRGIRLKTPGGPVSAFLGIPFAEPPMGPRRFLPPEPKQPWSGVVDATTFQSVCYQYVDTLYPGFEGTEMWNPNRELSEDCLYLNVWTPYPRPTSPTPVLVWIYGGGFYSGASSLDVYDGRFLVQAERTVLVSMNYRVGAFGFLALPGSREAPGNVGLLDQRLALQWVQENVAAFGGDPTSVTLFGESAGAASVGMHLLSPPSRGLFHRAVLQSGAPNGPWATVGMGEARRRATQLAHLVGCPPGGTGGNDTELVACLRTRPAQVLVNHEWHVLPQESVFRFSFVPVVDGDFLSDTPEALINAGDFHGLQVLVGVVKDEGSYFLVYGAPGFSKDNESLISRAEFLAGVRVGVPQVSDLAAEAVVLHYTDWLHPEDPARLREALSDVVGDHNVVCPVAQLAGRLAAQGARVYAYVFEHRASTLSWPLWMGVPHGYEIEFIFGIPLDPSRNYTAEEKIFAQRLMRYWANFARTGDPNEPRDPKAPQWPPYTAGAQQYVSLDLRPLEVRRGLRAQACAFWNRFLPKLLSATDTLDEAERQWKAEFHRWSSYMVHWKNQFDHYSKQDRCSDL

Compound | pIC50 (acetylcholinesterase) | % of animals with scopolamine induced memory deficit reversal ([1]; dose 5.0 mg/kg body weight) [%] | % of animals with scopolamine induced memory deficit reversal ([1]; dose 0.31 mg/kg body weight, reference) [%]
Fc1ccc(C2Nc3c4c(nc5ccccc35)CCCC4O2)cc1 (stereo not shown) [2-(4-Fluorophenyl)-1,2,3a,4,5,6-hexahydro[1,3]oxazino[6,5,4-kl]acridine] | 4.68 | – | –
c1ccc(C2Nc3c4c(nc5ccccc35)CCCC4O2)cc1 (stereo not shown) [2-Phenyl-1,2,3a,4,5,6-hexahydro[1,3]oxazino[6,5,4-kl]acridine] | 4.44 | 27 | –
CNC(=O)Oc1ccc2c(c1)[C@]1(C)CCN(C)[C@@H]1N2C [Physostigmine, reference compound] | – | – | 20
